Measured values taken from patent US10647680B2, “Urea compound, preparation method therefor and medical use thereof” (Ancureall Pharmaceutical (Shanghai) Co., Ltd., priority 2016, dated 2020).
Read-outs that look alike come from different tables or passages of the source.

Tests used:
[1] = Bidirectional transmembrane transport and P-gp efflux in Caco-2 monolayer cell model; format: in vitro ADME; details: human
Method: (§1) The Caco-2 cell transport experiment was performed using compound 77 of the present invention as a representative example.
(§2) Main procedure: Caco-2 cells (ATCC, HTB-37) were cultured in high-glucose DMEM culture medium (Hyclone) containing 10% fetal calf serum (GIBCO) and penicillin-streptomycin (100 units/mL each) (Sigma). Cells were cultured at 37° C. in an incubator containing 5% CO2. In the transport experiment, Caco-2 cells were inoculated on a filter of a 12-well Transwell plate at a density of 2×10^5 cells/well (Coming Costar, catalog #3401, 1.12 cm^2, 0.4 um of pore size). After inoculation, the Caco-2 cells would form intact cell monolayers after 21 days, including P-gp efflux transporter expression and transepithelial cell resistance (TEER) formation. During the period, the culture medium was replaced once every other day. The volume of culture medium at the transwell membrane Apical Side (A) and Basolateral Side (B) were 0.5 mL and 1.5 mL, respectively. Before the transport experiment (day 21), the preheated HBSS buffer (137 mM NaCl, 4.17 mM NaHCO3, 0.34 mM Na2HPO4, 5.37 mM KCl, 0.44 mM KH2PO4, 1.26 mM CaCl2, 0.49 mM MgCl2, 0.41 mM MgSO4, 5.55 Mm D-Glucose, 10 mM HEPES, pH 7.4) was used firstly to wash Caco-2 cell monolayers for three times, and placed to at 37° C. for incubation for 30 minutes, then TEER values were determined using a cell resistometer (Millicell-ERS2) to confirm the integrity and compactness of the cell monolayers. When the HBSS buffer solution on the transmembrane A-side or B-side was replaced with the test compound, the transport experiment was started.
(§3) Finally, after incubation at 37° C. for 2 hours, the transport experiment was terminated and 50 uL of sample solution was taken from both sides of the Transwell filter membrane separately and added to 100 μL of acetonitrile comprising internal standard compound and mixed well, then centrifuged at 13000 rpm, 4° C. for 10 min, and finally 10 μL (or a specific volume) of supernatant was used for LC-MS/MS sample analysis.
(§4) For each compound, transport experiments in the A-B and B-A directions had three replicates, i.e. n=3.
(§5) LC-MS/MS Sample Analysis: The high performance liquid chromatography (HPLC) system used in this research consisted of two pumps (Shimadzu LC-20AD) and an autosampler (Shimadzu SIL-20AC). The HPLC system was connected in series with an API 4000 triple quadrupole mass spectrometer (Applied Biosystems). The API 4000 triple quadrupole mass spectrometer was equipped with an electrospray ionization (ESI) source. Ultrapurified nitrogen was used as curtain gas, GAS1, GAS2, and collision gas, at flow rates of 20 L/h, 55 L/h, 65 L/h, and 6 L/hr, respectively. The atomization temperature of the ion source was set to 500° C. Data was collected using the software Analyst 1.5.
(§6) Data analysis: The apparent permeability coefficient (Papp) can be calculated by the rate at which a compound permeates the monolayer of Caco-2 cells. Its value is related to the absorption of the compound in vivo. After concentrations at A side and B side were determined by LC-MS/MS, the Papp value in the A-B or B-A direction was calculated according to the following formula: Papp(A→B) or Papp(B→A)=(dQ/dt)/(A*C0)=(C2h*V)/(t*π2*C0)
(§7) In the above formula, dQ/dt is the permeation rate, i.e. the amount of compound that permeated in the dt time, C0 is the initial concentration of drug on the administration side, and A is the surface area of the cell monolayer, i.e. the membrane area.
(§8) After obtaining the Papp (A→B) and Papp (B→A) values of the compound, the Efflux Ratio (ER) of the compound could be calculated by the following formula: Efflux Ratio(ER)=Papp(B−A)/Papp(A−B).
(§9) When the ratio of efflux was >2, the compound could be considered as the substrate of the efflux transporter.

[2] = system: P-gp; experiment: as above; format: in vitro ADME; details: human, Caco-2, pH 7.4; Concentration 10, Inhibitor − (without P-gp inhibitor GF120918); read-out: Efflux Ratio Papp (B→A)/Papp (A→B)
Method: as §1, §2, §3, §4, §5, §6, §7, §8, §9

For `C[C@H]1O[C@@H](O[C@H]2[C@@H](O)C[C@H](O[C@H]3[C@@H](O)C[C@H](O[C@H]4CC[C@@]5(C)[C@H](CC[C@@H]6[C@@H]5C[C@@H](O)[C@]5(C)[C@@H](C7=CC(=O)OC7)CC[C@]65O)C4)O[C@@H]3C)O[C@@H]2C)C[C@H](O)[C@@H]1O` [Digoxin], the Papp A→B at 2 h ([1]; Caco-2, pH 7.4, Caco-2 monolayer cell model, transmembrane permeability, read-out: Papp(A→B) value (conclusions under the table)) was < 1 ×10⁻⁶ cm/s, the Papp B→A at 2 h ([1]; Caco-2, pH 7.4, Concentration 10, Inhibitor − (without P-gp inhibitor GF120918)) was 20.4 ×10⁻⁶ cm/s and the Papp A→B at 2 h ([1]; Caco-2, pH 7.4, Concentration 10, Inhibitor − (without P-gp inhibitor GF120918), read-out: Papp (A→B)) was 0.06 ×10⁻⁶ cm/s. The efflux ratio at 2 h [2] was 322.
